Source: patent US20060110456A1, “Method for biocidal and/or biostatic treatment and compositions therefor” (NATIONAL UNIVERSITY OF SINGAPORE, priority 2004, published 2006)
Entries after “also recorded” stand apart in the source; their conditions may differ. Where a name gives a salt, the structure may show the parent alone.

Key:
[1] = test system: marine bacteria (ten strains); assay: Bio-adhesion assay (crystal violet microplate); type: cell-based, marine bacteria isolated from Singapore fouling communities; settings: for Effect of drugs on adhesion of bacteria: 50 μl of 125 μg ml^−1 drug + 200 μl bacteria, 2 hours
Method: The effect of pharmaceuticals on bacterial adhesion was analyzed using a modified microplate method adapted from Shea and Williamson (1990). This method consists of staining the attached bacteria with crystal violet, releasing the stain with sodium desoxycholate, and measuring the resulting absorbance of the crystal violet. The absorbance is proportional to the degree of bacterial adhesion to the surface.
Ten strains of bacteria (strain numbers 1, 4, 9, 14, 18, 20, 27, 28, 29 and 30) were chosen for this study. Flat bottom non-tissue culture treated polystyrene (hydrophobic, Falcon #351172) (referred to as polystyrene) and flat bottom tissue culture treated polystyrene (hydrophilic, Falcon #353072) microplates were used in the analyses. These two types of plates were chosen because they were sterile and offered two different kinds of surfaces to determine the adhesion preferences of the bacteria. Each test was done in duplicate. For the control and blank wells, 50 μl of sterile deionized water were added. For those wells that were to contain drugs, 50 μl of drugs at concentration of 125 μg ml^−1 were added. Then 200 μl of bacteria suspension in sterile seawater, whose absorbance had been adjusted to 0.6 at 600 nm using a spectrophotometer (Beckman), were added. Blanks contained 200 μl of sterile seawater.
The bacteria in suspension were allowed to attach for 2 hours at 28° C. Unattached cells were removed by pipetting out almost all trace of liquid and rinsed three times with 300 μl of sterile seawater each time. The attached cells were stained with 200 μl of crystal violet solution (0.1% w/v) in each well for 5 min. After removing the stain by pipetting, the wells were rinsed twice with 300 μl of sterile deionized water each time. Sodium desoxycholate (200 μl) solution (2% w/v) was then added to each well to extract the crystal violet from the stained cells for 10 min. The absorbance of the extracted solution was read at 590 nm using a microplate reader (Sunrise, Tecan, Switzerland).
The data were analyzed using T-test (Two-sample assuming unequal variances) to determine the significance of the absorbance values of each bacterial strain versus the blanks to determine whether there was adhesion, i.e. increase in absorbance. Each drug effect on adhesion was analyzed by comparing the absorbance of each bacterial strain minus the control blank versus bacteria in presence of drug minus the drug control. When the data is significant, there are bacterial cells attached to the surface in the control but in the presence of drugs, there is no attachment.

[2] = test system: hard fouling (barnacles, serpulids, spirorbids); assay: Field testing of coated rods; type: in vivo; design: Total hard fouling, difference in mean cover (%), drug vs control / Barnacles, difference in mean cover (%), drug vs control: tested at 25 µg/ml of coating; Serpulids, difference in mean cover (%), drug vs control: tested at 25 µg/ml of coating mix
Method: Fouling on rods occurs more rapidly than on flat panels, enabling rapid assessment of the performance of coatings.
6 mm diameter glass rods were cut to 150 mm length and prepared prior to coating by baking in a furnace at 150° C. for 24 hours and then cooling in a dessicator.
All pharmaceuticals were obtained in commercially available form. All tablets were reduced to fine powder with a mortar and pestle, and capsules were opened to extract the contents. The amount of drug powder required to attain the desired concentrations for all tests was calculated from product dosage information and then measured by weight on a high-resolution electronic balance. This was added to the coating and mixed thoroughly prior to application to obtain the concentration of 25 ug active ingredient per ml of coating mix.
The commercial antifouling product used to benchmark field experiments was VC Offshore with Teflon® manufactured by International Coatings.
For our experiments, a reduced copper coating (“VC50”) was prepared by mixing approximately 20 g of #YBA779 into 100 ml of #YBA707. The prepared coating was then allowed to stand so that bubbles from the mixing process dissipated. 15 ml centrifuge tubes were filled with 10 mls of prepared coating. Prepared glass rods were then immersed in the coating to a height of 100 mm and then suspended on a frame to air dry until coating cured.
Five replicate rods were tested for every experimental treatment, including controls. Two sets of controls were used, an uncoated blank control and a VC50 control without pharmaceutical additives. Rod were randomly arrayed on plastic vexar mesh attached to PVC frames and suspended at a depth of 10 cm from the water surface. […] Rods were examined visually weekly for the duration of testing, which typically lasts between 6 to 10 weeks. All fouling was scored as percentage cover of each category within a 6 mm×50 mm transect on each rod.

Bugula neritina larvae = assay: Bioassay against bryozoan larvae; type: in vivo; settings: crude rank, best (1) to worst (8)
Method: Bugula neritina (Phylum Bryozoa, Class Gymnolaemata, Order Cheilostomatida) is a cosmopolitan species of bryozoan, commonly found in most marine fouling communities. The larvae are brooded in ovicells found on the stem of the colonies. When released, the larva will settle quickly on most surfaces, within a few minutes. At 24° C., the settled larvae forms the one-cell ancestrula, and after 48 hours, the lophophore has developed and extended for feeding.
Adult colonies of Bugula neritina were collected from fouling communities growing on the submerged pontoons on a floating fish farm located off Changi, Singapore. Adult animals were maintained in the open-circulation aquarium at St John's island marine laboratory, Singapore. The adults were kept in total darkness for 24 hours. On exposure to light, larvae were released after half an hour. […] Because the larvae will settle quickly, larvae were pipetted directly into test wells in 1 ml of seawater using a graduated glass pipette.
4 replicates were done for each treatment. After 24 hours, larvae were scored as settled, swimming or dead/deformed. The assay plates were usually kept for another 24 hours and checked again, to ascertain that the settled larvae had developed into viable colonies with lophophores. Two trials were repeated for each compound.
Bioassays were carried out using the method described above, in July 2003 during the peak spawning season for Bugula.

[3] = drug + VC50 rods vs VC50 control
[4] = drug + VC50 rods vs uncoated blank control
[5] = rods coated with drug + VC50, field test

## CN1CCN(C(c2ccccc2)c2ccccc2)CC1 [CYZ, Cyclizine hydrochloride]
[1]; polystyrene or tissue culture surface as named in the value, hydrochloride
  Effect on bacterial adhesion: did not modify bacterial adhesion on polystyrene; also recorded: marginally increased adhesion for strain 27 in the tissue culture surface
[1]; strain 27, hydrophilic surface (tissue culture treated polystyrene)
  Effect of drugs on adhesion of bacteria: *Incr adhesion
[2]; coated rods, in words
  Performance against barnacles: significantly lower than both blank and VC50 controls
  Performance against serpulid polychaetes: significantly enhanced the performance of VC50 against serpulid polychaetes
[2]; crude rank, best (1) to worst (8)
  Overall performance in field assay: 5
[2]; [3]
  Barnacles, difference in mean cover (%), drug vs VC50: −13%
  Serpulids, difference in mean cover (%), drug vs VC50: −1.67%
  Spirorbids, difference in mean cover (%), drug vs VC50: −5%
  Total hard fouling, difference in mean cover (%), drug vs VC50: −19.7%
[2]; [4]
  Barnacles, difference in mean cover (%), drug vs control: −77.34%
  Serpulids, difference in mean cover (%), drug vs control: −6.67%
  Spirorbids, difference in mean cover (%), drug vs control: +6%
  Total hard fouling, difference in mean cover (%), drug vs control: −78.0%
[2]; drug at 25 ug per ml of VC50 coating
  Reduction of total hard fouling cover compared to VC50 alone: 47.2%
[2]; drug at 25 ug per ml of VC50 coating, in words, hydrochloride
  Effect of addition of drug on antifouling performance of VC50 coating (total hard fouling): marginally increased the performance of VC50 coating; also recorded: significantly improved the performance of VC50 coating
[2]; [5]
  Barnacles Mean cover (%): 10.33%
  Serpulids Mean cover (%): 0%
  Spirorbids Mean cover (%): 11.67%
[2]; rods coated with drug + VC50, field test, percentage cover within 6 mm×50 mm transect
  Total hard fouling Mean cover (%): 22.0%
Bugula neritina larvae
  Prevention of settlement of Bugula larvae: 5

## CN1CCN(CCCN2c3ccccc3Sc3ccc(C(F)(F)F)cc32)CC1 [TFZ, Trifluoperazine hydrochloride]
[1]; strain 4 (Bacillus), hydrophilic surface (tissue culture treated polystyrene)
  Effect of drugs on adhesion of bacteria: * (Significantly less adhesion observed: * p < 0.05)
[1]; strain 4 (Bacillus), hydrophobic surface (untreated polystyrene)
  Effect of drugs on adhesion of bacteria: *** (*** p < 0.005)
[1]; strain 9 (Bacillus), hydrophobic surface (untreated polystyrene)
  Effect of drugs on adhesion of bacteria: ** (** p < 0.01)
[1]; strain 18 (Microbacterium), hydrophilic surface (tissue culture treated polystyrene)
  Effect of drugs on adhesion of bacteria: * (Significantly less adhesion observed: * p < 0.05)
[1]; strain 27, hydrophobic surface (untreated polystyrene)
  Effect of drugs on adhesion of bacteria: *** (*** p < 0.005)
Bugula neritina larvae
  Prevention of settlement of Bugula larvae: 2
